The target in experiment [1] is T1, hCB1R (Homo sapiens, UniProt P21554). Kind of experiment: Binding to the CB1 receptor ([3H]-SR141716A displacement). As to the method: Binding to the CB1 Receptor:
Test compounds: The compounds (3 μl, 10 mM, 100% DMSO), pipetted into 96-well PP microtiter plates, were diluted with 27 μl of 100% DMSO (dimethyl sulfoxide). Proceeding from this solution, further 3-fold dilution steps were undertaken by transferring 10 μl in each case to a new PP microtiter plate and adding a further 20 μl of 100% DMSO. In each case 6 μl of these solutions were transferred into new 96-well PP microtiter plates and made up with 144 μl of assay buffer. The end concentrations ranged from 10 μM to 0.005 μM. Negative control: AM 251, dissolved in assay buffer with 1% DMSO, was added to the dilution series in the microtiter plates as a control. The end concentration was 1 μM. Blank control: assay buffer with 1% DMSO was added to the dilution series of the microtiter plates as a blank control.
Summary of the Assay Parameters:
High control: ^3H binding without addition of the compound
Low control: ^3H binding in the presence of 1 μM AM 251
The values were calculated using the corrected raw data.
The values reported were obtained as average values of a double determination. The IC50 values were calculated from the measurements with the program Xlfit, formula 205. Ki values were obtained from the IC50 and Kd values utilizing the Cheng-Prusoff equation: […]
Literature: Cheng, Y.-C., and Prusoff, W. H. (1973) Biochem. Pharmacol 22, 3099-3108

The target of experiment [2] is T1, hCB1R. The experiment is described as follows: In vitro functional assay (FLIPR, intracellular Ca2+) with recombinant HEK293 cells, CB1. Also on record: expressed in transfected cells; host or cells: HEK293. The class given is cell-based. As to conditions: recombinant HEK293 cells expressing CB1 and Galpha16; 20 min preincubation, then reference agonist; Ca2+ change; read-out: hCB1R: FLIPR; IC50. An excerpt:
In Vitro Functional Assays with Recombinant Cells:

Where [3] appears, read: CHO-K1/cannabinoid CB1 protein 2 μg/well, [3H]-SR141716A 0.5 nM, Ki from IC50 by Cheng-Prusoff, average of double determination, read-out: hCB1R, binding Ki.

pIC50, pKi: −log10 of the molar value. Where two headings read alike, the source gives them in different places.

T1 sequence (P21554 whole entry): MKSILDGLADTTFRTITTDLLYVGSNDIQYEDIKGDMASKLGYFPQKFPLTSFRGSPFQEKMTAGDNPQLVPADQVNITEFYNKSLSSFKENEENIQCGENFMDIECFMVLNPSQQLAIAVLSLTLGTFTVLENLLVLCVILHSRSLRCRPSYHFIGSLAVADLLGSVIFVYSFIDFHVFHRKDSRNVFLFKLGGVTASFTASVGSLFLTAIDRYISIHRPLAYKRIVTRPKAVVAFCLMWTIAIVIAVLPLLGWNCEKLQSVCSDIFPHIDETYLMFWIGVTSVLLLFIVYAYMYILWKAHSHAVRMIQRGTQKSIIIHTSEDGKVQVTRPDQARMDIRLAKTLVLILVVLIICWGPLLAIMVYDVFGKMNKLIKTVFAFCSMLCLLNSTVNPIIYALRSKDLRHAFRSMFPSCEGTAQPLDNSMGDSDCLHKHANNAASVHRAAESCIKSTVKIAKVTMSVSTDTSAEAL

In experiment [1], `CC1(C)C(=O)N(c2ccc(C#N)c(C(F)(F)F)c2)C(=O)N1Cc1ccccc1Nc1cccc(C(F)(F)F)c1` [Example 34, 4-{3-[2-(3-trifluoromethylphenylamino)benzyl]-4,4-dimethyl-2,5-dioxoimidazolidin-1-yl}-2-trifluoromethylbenzonitrile] had a pKi of 7.85.

Compound `CC1(C)C(=O)N(c2ccc(C#N)c(C(F)(F)F)c2)C(=O)N1Cc1ccccc1Nc1ccc(C(=O)NCC(N)=O)cc1` [Example 161, N-carbamoylmethyl-4-{2-[3-(4-cyano-3-trifluoromethylphenyl)-5,5-dimethyl-2,4-dioxoimidazolidin-1-ylmethyl]phenylamino}benzamide] showed a pKi in experiment [1] of 8.10.

`CC1(C)C(=O)N(c2ccc(C#N)c(C(F)(F)F)c2)C(=O)N1Cc1ccccc1Nc1ccc(C(=O)O)cc1` [Example 62]: in experiment [1], the pKi is 7.80.

On to `COC(=O)c1ccc(Nc2cc(F)ccc2CN2C(=O)N(c3ccnc(C(C)(C)C)c3)C(=O)C2(C)C)cc1` [Example 167, Methyl 4-{2-[3-(2-tert-butylpyridin-4-yl)-5,5-dimethyl-2,4-dioxoimidazolidin-1-ylmethyl]-5-fluorophenylamino}benzoate], for which, in experiment [1] (setting [3]), the pKi is 8.15.

For `CC1(C)C(=O)N(c2ccc(F)c(C(F)(F)F)c2)C(=O)N1Cc1ccc(F)cc1Nc1ccc(C(=O)N2CCC(O)CC2)cc1` [Example 171, 1-{4-Fluoro-2-[4-(4-hydroxypiperidine-1-carbonyl)phenylamino]benzyl}-3-(4-fluoro-3-trifluoromethylphenyl)-5,5-dimethylimidazolidine-2,4-dione], the pKi in experiment [1] (setting [3]) is 6.92.

In experiment [1], `CC1(C)C(=O)N(c2ccc(C#N)c(C(F)(F)F)c2)C(=O)N1Cc1ccc(C#N)cc1Nc1ccc(C(=O)O)cc1` [Example 132, 4-{5-cyano-2-[3-(4-cyano-3-trifluoromethylphenyl)-5,5-dimethyl-2,4-dioxoimidazolidin-1-ylmethyl]phenylamino}benzoic acid] gave a pKi of 8.22.

`N#Cc1ccc(N2C(=O)N(Cc3ccccc3Nc3ccccc3)C3(CCCCC3)C2=O)cc1C(F)(F)F` [Example 28, 4-[2,4-Dioxo-1-(2-phenylaminobenzyl)-1,3-diazaspiro[4.5]dec-3-yl]-2-trifluoromethylbenzonitrile] showed a pKi in experiment [1] of 7.06.

Consider `COC(=O)c1ccc(Nc2cc(F)ccc2CN2C(=O)N(c3ccc(C#N)c(-c4ccccc4)c3)C(=O)C2(C)C)cc1` [Example 223], for which, in experiment [1] (setting [3]), the pKi was 8.40.

In experiment [1], `CC1(C)C(=O)N(c2ccc(C#N)c(C(F)(F)F)c2)C(=O)N1Cc1ccccc1Nc1ccc2c(c1)OC(F)(F)O2` [Example 32, 4-{3-[2-(2,2-difluorobenzo[1,3]dioxol-5-ylamino)benzyl]-4,4-dimethyl-2,5-dioxoimidazolidin-1-yl}-2-trifluoromethylbenzonitrile] showed a pKi of 8.52.

For `COc1ccc(Nc2ccc(C#N)c(C(F)(F)F)c2)c(CN2C(=O)N(c3ccc(C#N)c(C(F)(F)F)c3)C(=O)C2(C)C)c1` [Example 10, 4-{3-[2-(4-cyano-3-trifluoromethylphenylamino)-5-methoxybenzyl]-4,4-dimethyl-2,5-dioxoimidazolidin-1-yl}-2-trifluoromethylbenzonitrile], in experiment [1], the pKi was 7.62.

Compound `COc1ccc(Nc2ccc(C(F)(F)F)cc2)c(CN2C(=O)N(c3ccc(C#N)c(C(F)(F)F)c3)C(=O)C2(C)C)c1` [Example 8, 4-{3-[5-methoxy-2-(4-trifluoromethylphenylamino)benzyl]-4,4-dimethyl-2,5-dioxoimidazolidin-1-yl}-2-trifluoromethylbenzonitrile] showed a pKi in experiment [1] of 7.82.

In turn, `CC1(C)C(=O)N(c2ccc(C#N)c(C(F)(F)F)c2)C(=O)N1Cc1cc(C(F)(F)F)ccc1Nc1ccc(Cl)cc1` [Example 19, 4-{3-[2-(4-chlorophenylamino)-5-trifluoromethylbenzyl]-4,4-dimethyl-2,5-dioxoimidazolidin-1-yl}-2-trifluoromethylbenzonitrile] gave a pKi in experiment [1] of 8.30.

Turning to `CC1(C)C(=O)N(c2ccc(C#N)nc2)C(=O)N1Cc1ccccc1Nc1ccccc1` [Example 69], the pKi in experiment [1] (setting [3]) is 6.95.

For the compound `CC1(C)C(=O)N(c2ccc(C#N)c(C(F)(F)F)c2)C(=O)N1Cc1ccccc1Nc1ccc(C(=O)NCCO)cc1` [Example 149, 4-{2-[3-(4-cyano-3-trifluoromethylphenyl)-5,5-dimethyl-2,4-dioxoimidazolidin-1-ylmethyl]phenylamino}-N-(2-hydroxyethyl)benzamide], the pKi in experiment [1] was 8.22.

`CC1(C)C(=O)N(c2ccc(F)c(C(F)(F)F)c2)C(=O)N1Cc1ccc(F)cc1Nc1ccc(C(=O)NC[C@H](O)[C@@H](O)[C@H](O)[C@H](O)CO)cc1` [Example 170, 4-{5-Fluoro-2-[3-(4-fluoro-3-trifluoromethylphenyl)-5,5-dimethyl-2,4-dioxoimidazolidin-1-ylmethyl]phenylamino}-N-((2S,3R,4R,5R)-2,3,4,5,6-pentahydroxyhexyl)benzamide]: in experiment [1] (setting [3]), the pKi is 6.95.

`CC1(C)C(=O)N(c2ccc(C#N)c(C(F)(F)F)c2)C(=O)N1Cc1ccccc1Nc1ccc(S(F)(F)(F)(F)F)cc1` [Example 26, 4-{3-[2-(4-pentafluorosulfanylphenylamino)benzyl]-4,4-dimethyl-2,5-dioxoimidazolidin-1-yl}-2-trifluoromethylbenzonitrile]: the pKi in experiment [1] is 7.41.

In turn, `CC1(C)C(=O)N(c2ccc(C#N)c(C(F)(F)F)c2)C(=O)N1Cc1ccccc1Nc1ccc(S(C)(=O)=O)cc1` [Example 27, 4-{3-[2-(4-methylsulfonylphenylamino)benzyl]-4,4-dimethyl-2,5-dioxoimidazolidin-1-yl}-2-trifluoromethylbenzonitrile] gave a pKi in experiment [1] of 7.77.

Regarding `CC1(C)C(=O)N(c2ccc(Oc3ccc(Cl)cc3)c(C(F)(F)F)c2)C(=O)N1Cc1ccccc1Nc1ccc(F)cc1F` [Example 50, 3-[4-(4-Chlorophenoxy)-3-trifluoromethylphenyl]-1-[2-(2,4-difluorophenylamino)benzyl]-5,5-dimethylimidazolidine-2,4-dione], the pKi in experiment [1] (setting [3]) was 7.96.

The compound `COC(=O)c1ccc(Nc2cc(F)ccc2CN2C(=O)N(c3ccc(C#N)c(C)c3)C(=O)C2(C)C)cc1` [Example 160, Methyl 4-{2-[3-(4-cyano-3-methylphenyl)-5,5-dimethyl-2,4-dioxoimidazolidin-1-ylmethyl]-5-fluorophenylamino}benzoate] gave a pKi in experiment [1] of 8.52.

`CC1(C)C(=O)N(c2ccc(C#N)c(C(F)(F)F)c2)C(=O)N1Cc1ccccc1Nc1ccc(OC(F)(F)F)cc1` [Example 12, 4-{3-[2-(4-trifluoromethoxy-phenylamino)benzyl]-4,4-dimethyl-2,5-dioxoimidazolidin-1-yl}-2-trifluoromethylbenzonitrile] gave a pKi in experiment [1] of 9.05.

With `COC(=O)C1=C[C@@H](OC(C)=O)[C@H](OC(C)=O)[C@@H](Oc2ccc(Nc3ccccc3CN3C(=O)N(c4ccc(C#N)c(C(F)(F)F)c4)C(=O)C3(C)C)cc2)O1` [Example 197, methyl (4R,5S,6S)-4,5-diacetoxy-6-(4-{2-[3-(4-cyano-3-trifluoromethylphenyl)-5,5-dimethyl-2,4-dioxoimidazolidin-1-ylmethyl]phenylamino}phenoxy)-5,6-dihydro-4H-pyran-2-carboxylate], the pIC50 in experiment [2] is 7.72.

On to `CC1(C)C(=O)N(c2ccc(C#N)c(C(F)(F)F)c2)C(=O)N1Cc1ccccc1Nc1ccc(O)nn1` [Example 198, 4-{3-[2-(6-Hydroxypyridazin-3-ylamino)benzyl]-4,4-dimethyl-2,5-dioxoimidazolidin-1-yl}-2-trifluoromethylbenzonitrile trifluoroacetic acid], for which, in experiment [2], the pIC50 is 7.64.

With `CC1(C)C(=O)N(c2ccc(C#N)c(C(F)(F)F)c2)C(=O)N1Cc1c(Cl)cc(Cl)cc1Nc1ccc(C(=O)O)cc1` [Example 105, 4-{3,5-dichloro-2-[3-(4-cyano-3-trifluoromethylphenyl)-5,5-dimethyl-2,4-dioxoimidazolidin-1-ylmethyl]phenylamino}benzoic acid], the pIC50 in experiment [2] is 7.31.

As to `CC1(C)C(=O)N(c2ccc(F)c(C(F)(F)F)c2)C(=O)N1Cc1ccc(F)cc1Nc1ccc(NS(C)(=O)=O)cc1` [Example 240, N-(4-{5-Fluoro-2-[3-(4-fluoro-3-trifluoromethylphenyl)-5,5-dimethyl-2,4-dioxoimidazolidin-1-ylmethyl]phenylamino}phenyl)methanesulfonamide], the pIC50 in experiment [2] was 7.96.

On to `CC1(C)C(=O)N(c2ccc(F)c(C(F)(F)F)c2)C(=O)N1Cc1ccc(F)cc1Nc1ccc2c(c1)C(=O)CC2` [Example 205, 1-[4-fluoro-2-(3-oxoindan-5-ylamino)benzyl]-3-(4-fluoro-3-trifluoromethylphenyl)-5,5-dimethylimidazolidine-2,4-dione], for which, in experiment [2], the pIC50 was 7.77.

`CC1(C)C(=O)N(c2ccc(C#N)c(C(F)(F)F)c2)C(=O)N1Cc1c(Cl)cc(Cl)cc1Nc1ccc(Cl)cc1` [Example 37, 4-{3-[2,4-dichloro-6-(4-chlorophenylamino)benzyl]-4,4-dimethyl-2,5-dioxoimidazolidin-1-yl}-2-trifluoromethylbenzonitrile]: the pIC50 in experiment [2] was 7.68.

These data come from patent US7759366B2 (Sanofi-Aventis, priority 2006, dated 2010).
